# Experimental data: US20220204489A1, “ARYLSULFONYLTHIOPHENECARBOXAMIDES AND ARYLSULFONYLFURANCARBOXAMIDES AS Kv3 POTASSIUM CHANNEL ACTIVATORS” (H. Lundbeck A/S, priority 2019, published 2022)
# Target: T1, hKv3.1b (Homo sapiens, UniProt P48547)
# T1 construct: expressed in transfected cells
# T1 sequence (P48547 1-585 isoform P48547-2): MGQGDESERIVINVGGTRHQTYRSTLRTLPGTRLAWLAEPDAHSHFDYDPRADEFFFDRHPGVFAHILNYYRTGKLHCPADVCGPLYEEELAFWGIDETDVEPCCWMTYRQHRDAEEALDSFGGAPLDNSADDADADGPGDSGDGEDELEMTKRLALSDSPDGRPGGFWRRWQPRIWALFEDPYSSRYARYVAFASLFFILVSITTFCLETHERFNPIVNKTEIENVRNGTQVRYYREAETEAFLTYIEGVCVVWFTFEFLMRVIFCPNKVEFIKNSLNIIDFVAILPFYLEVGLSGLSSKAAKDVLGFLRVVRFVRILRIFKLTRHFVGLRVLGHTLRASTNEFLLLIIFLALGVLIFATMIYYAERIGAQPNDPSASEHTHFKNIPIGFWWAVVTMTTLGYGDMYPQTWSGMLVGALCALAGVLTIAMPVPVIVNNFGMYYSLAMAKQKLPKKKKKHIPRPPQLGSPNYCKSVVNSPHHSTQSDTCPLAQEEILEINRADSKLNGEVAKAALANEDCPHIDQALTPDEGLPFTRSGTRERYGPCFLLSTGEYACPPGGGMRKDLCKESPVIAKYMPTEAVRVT
# Experiment: QPatch automated whole-cell patch-clamp, shift of voltage threshold for channel activation
# Type: cell-based
# Details: HEK-293 cells stably expressing hKv3.1b; for ECdelta5mV: concentration needed to shift the threshold 5 mV, read from fitted concentration response curve; for Max threshold shift: maximum absolute shift of activation threshold to more hyperpolarized potentials at tested concentrations (0.37, 1.11, 3.33, 10, 30 μM)
# Experimental: HEK-293 cells stably expressing hKv3.1b was used for the experiments. Cells were cultured in DMEM medium supplemented with 10% Fetal Bovine Serum, 100 ug/mL Geneticidin and 100 u/mL Penicillin/Streptomycin (all from Gibco). Cells were grown to 80-90% confluency at 37° C. and 5% CO2. On the day of the experiment the cells were detached from the tissue culture flasks by Detachin and resuspended in serum free medium containing 25 mM HEPES and transferred to the cell hotel of the QPatch. The cells were used for experiments 0-5 hours after detachment.
# Patch-clamp recordings were performed using the automated recording system QPatch-16× (Sophion Bioscience, Denmark). Cells were centrifuged, SFM removed and the cells were resuspended in extracellular buffer containing (in mM): 145 NaCl, 4 KCl, 1 MgCl2, 2 CaCl2, 10 HEPES and 10 glucose (added fresh on the day of experiment); pH 7.4 adjusted with NaOH, 305 mOsm adjusted with sucrose.
# Single cell whole-cell recordings were carried out using an intracellular solution containing (in mM): 120 KCl, 32.25/10 KOH/EGTA, 5.374 CaCl2, 1.75 MgCl2, 10 HEPES, 4 Na2ATP (added fresh on the day), pH 7.2 adjusted with KOH, 395 mOsm adjusted with sucrose. Cell membrane potentials were held at −80 mV and currents were evoked by voltage steps (200 ms duration) from −70 mV to +10 mV (in 10 mV increments). Vehicle (0.33% DMSO) or increasing concentration of compound (1) were applied and the voltage protocol was run 3 times (resulting in 3 min cpd incubation time). Five increasing concentrations of compound (1) were applied to each cell.
# Leak subtraction protocol was applied at −33% of the sweep amplitude, and serial resistance values were constantly monitored.
# Any cell where serial resistance exceeded 25 MOhm, membrane resistance less than 200 MOhm or current size at −10 mV less than 200 pA was eliminated from the subsequent analysis.
# Data analysis was performed using Sophion's QPatch assay software in combination with Microsoft Excel™ (Redmond, Wash., USA).
# Current voltage relationships were plotted from the peak current at the individual voltage steps normalized to the vehicle addition at 10 mV. The voltage threshold for channel activation was defined as 5% activation of the peak current at 10 mV in presence of vehicle. The activity of the compounds was described as the ability to shift this current voltage relationship to more hyperpolarized potentials and is given as the maximum absolute shift possible at the tested concentrations (0.37, 1.11, 3.33, 10, 30 μM). Concentration response curves were plotted from the threshold shift at the individual concentrations and were fitted excel fit model 205 sigmodal dose-response model (fit=A+((B−A)/1+((C/x)^D)))), where A is the minimum value, B the maximum value, C the EC50 value and D the slope of the curve. The concentration needed to shift the threshold 5 mV was readout from this curve (ECdelta5 mV).
Compound,ECdelta5mV [nM],Max threshold shift [mV]
"Cc1ccc(S(=O)(=O)c2ccc(C(=O)NCc3cnc(C)cn3)s2)cc1 [Compound 1, 5-(4-methylbenzene-1-sulfonyl)-N-[(5-methylpyrazin-2-yl)methyl]thiophene-2-carboxamide]",1200,24
"Cc1cnc(CNC(=O)c2ccc(S(=O)(=O)c3ccc(Cl)cc3)s2)cn1 [Compound 2, 5-(4-chlorobenzene-1-sulfonyl)-N-[(5-methylpyrazin-2-yl)methyl]thiophene-2-carboxamide]",1200,36
"Cc1cnc(CNC(=O)c2ccc(S(=O)(=O)c3ccc(F)cc3)s2)cn1 [Compound 3, 5-(4-fluorobenzene-1-sulfonyl)-N-[(5-methylpyrazin-2-yl)methyl]thiophene-2-carboxamide]",2200,19
"Cc1cnc(CNC(=O)c2ccc(S(=O)(=O)c3ccccc3C)s2)cn1 [Compound 4, 5-(2-methylbenzene-1-sulfonyl)-N-[(5-methylpyrazin-2-yl)methyl]thiophene-2-carboxamide]",1200,30
"Cc1ccc(S(=O)(=O)c2ccc(C(=O)NCc3ccc(C)nc3)s2)cc1 [Compound 5, 5-(4-methylbenzene-1-sulfonyl)-N-[(6-methylpyridin-3-yl)methyl]thiophene-2-carboxamide]",2100,21
"Cc1ccc(S(=O)(=O)c2ccc(C(=O)NCc3ncc(C)cn3)s2)cc1 [Compound 6, 5-(4-methylbenzene-1-sulfonyl)-N-[(5-methylpyrimidin-2-yl)methyl]thiophene-2-carboxamide]",3100,12
"Cc1ccc(S(=O)(=O)c2ccc(C(=O)NCc3ccn(C)n3)s2)cc1 [Compound 7, 5-(4-methylbenzene-1-sulfonyl)-N-[(1-methyl-1H-pyrazol-3-yl)methyl]thiophene-2-carboxamide]",2500,17
"Cc1ccc(S(=O)(=O)c2ccc(C(=O)NCc3cccnc3)s2)cc1 [Compound 8, 5-(4-methylbenzene-1-sulfonyl)-N-[(pyridin-3-yl)methyl]thiophene-2-carboxamide]",2900,16
"Cc1ccc(S(=O)(=O)c2ccc(C(=O)NCc3cnn(C)c3)s2)cc1 [Compound 9, 5-(4-methylbenzene-1-sulfonyl)-N-[(1-methyl-1H-pyrazol-4-yl)methyl]thiophene-2-carboxamide]",2600,17
"Cc1ccc(S(=O)(=O)c2ccc(C(=O)NCc3cnccn3)s2)cc1 [Compound 10, 5-(4-methylbenzene-1-sulfonyl)-N-[(pyrazin-2-yl)methyl]thiophene-2-carboxamide]",1200,25

# Now from value to compound:
ECdelta5mV [nM],Max threshold shift [mV],Compound
2500,17,"Cc1ccc(S(=O)(=O)c2ccc(C(=O)NCc3nc(C)no3)s2)cc1 [Compound 11, 5-(4-methylbenzene-1-sulfonyl)-N-[(3-methyl-1,2,4-oxadiazol-5-yl)methyl]thiophene-2-carboxamide]"
2600,14,"Cc1ccc(S(=O)(=O)c2ccc(C(=O)NCc3cc(C)no3)s2)cc1 [Compound 13, 5-(4-methylbenzene-1-sulfonyl)-N-[(3-methyl-1,2-oxazol-5-yl)methyl]thiophene-2-carboxamide]"
2000,22,"Cc1ccc(S(=O)(=O)c2ccc(C(=O)NCc3ccc(C)nn3)s2)cc1 [Compound 14, 5-(4-methylbenzene-1-sulfonyl)-N-[(6-methylpyridazin-3-yl)methyl]thiophene-2-carboxamide]"
3100,20,"Cc1ccc(S(=O)(=O)c2ccc(C(=O)NCc3ncn(C)n3)s2)cc1 [Compound 15, 5-(4-methylbenzene-1-sulfonyl)-N-[(1-methyl-1H-1,2,4-triazol-3-yl)methyl]thiophene-2-carboxamide]"
1500,24,"COc1ccc(S(=O)(=O)c2ccc(C(=O)NCc3cnc(C)cn3)s2)cc1 [Compound 16, 5-(4-methoxybenzene-1-sulfonyl)-N-[(5-methylpyrazin-2-yl)methyl]thiophene-2-carboxamide]"
1700,24,"Cc1ccc(S(=O)(=O)c2ccc(C(=O)NCc3cnc(C)nc3)s2)cc1 [Compound 17, 5-(4-methylbenzene-1-sulfonyl)-N-[(2-methylpyrimidin-5-yl)methyl]thiophene-2-carboxamide]"
2400,17,"Cc1cnc(CNC(=O)c2ccc(S(=O)(=O)c3ccccc3)s2)cn1 [Compound 18, 5-(benzenesulfonyl)-N-[(5-methylpyrazin-2-yl)methyl]thiophene-2-carboxamide]"
3800,14,"Cc1cc(F)ccc1S(=O)(=O)c1ccc(C(=O)NCc2cnccn2)s1 [Compound 19, 5-(4-fluoro-2-methylbenzene-1-sulfonyl)-N-[(pyrazin-2-yl)methyl]thiophene-2-carboxamide]"
1900,29,"Cc1cnc(CNC(=O)c2ccc(S(=O)(=O)c3ccc(F)cc3C)s2)cn1 [Compound 20, 5-(4-fluoro-2-methylbenzene-1-sulfonyl)-N-[(5-methylpyrazin-2-yl)methyl]thiophene-2-carboxamide]"
1700,32,"Cc1cnc(CNC(=O)c2ccc(S(=O)(=O)c3ccc(C(F)F)cc3)s2)cn1 [Compound 21, 5-[4-(difluoromethyl)benzene-1-sulfonyl]-N-[(5-methylpyrazin-2-yl)methyl]thiophene-2-carboxamide]"
2100,27,"Cc1ccc(S(=O)(=O)c2ccc(C(=O)NCc3cnc(C)cn3)o2)cc1 [Compound 22, 5-(4-methylbenzene-1-sulfonyl)-N-[(5-methylpyrazin-2-yl)methyl]furan-2-carboxamide]"
2400,17,"Cc1ccc(S(=O)(=O)c2ccc(C(=O)NCc3ccn(C)n3)o2)cc1 [Compound 23, 5-(4-methylbenzene-1-sulfonyl)-N-[(1-methyl-1H-pyrazol-3-yl)methyl]furan-2-carboxamide]"
2700,20,"COc1ccc(S(=O)(=O)c2ccc(C(=O)NCc3cnccn3)o2)cc1 [Compound 24, 5-(4-methoxybenzene-1-sulfonyl)-N-[(pyrazin-2-yl)methyl]furan-2-carboxamide]"
4100,15,"Cc1ccc(S(=O)(=O)c2ccc(C(=O)NCc3cc(F)ccn3)o2)cc1 [Compound 25, N-[(4-fluoropyridin-2-yl)methyl]-5-(4-methylbenzene-1-sulfonyl)furan-2-carboxamide]"
